The test system of the assay is Broad 7084-01 inhibitor HTS, set 2. Kind of assay: single-concentration hits, screen 7084 set 2 (AID 977613).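 Also: host cells are infected with parasite promastigotes that become internalized.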

Active and inactive are the calls of the source. No rule for the calls is given here.

As to `CN1C(=O)c2cc(NS(C)(=O)=O)ccc2OC[C@H]2O[C@@H](CC(=O)NC3CCCCC3)CC[C@@H]21`, the active concentration was > 10 µM (inactive). Next, `Cn1cnc(S(=O)(=O)N2C[C@@H](O)COC[C@@H]3O[C@@H](CC(=O)NC4CCCC4)CC[C@H]32)c1`: > 10 µM (inactive). Turning to `COc1cccc(S(=O)(=O)N2CCCCN3[C@H](CO)[C@H](c4ccc(C#CCC(C)C)cc4)[C@@H]3C2)c1`, the active concentration was > 10 µM (inactive). Consider `O=C(C[C@@H]1CC[C@@H]2[C@H](COC[C@H](O)CN2CC2CC2)O1)NCC1CC1`, for which the active concentration was > 10 µM (inactive). Next, `O=C(C1CC1)N1CC2(C1)[C@H](c1ccccc1)[C@H](CO)N2Cc1nccs1`: > 10 µM (inactive). Regarding `O=C(C[C@H]1CC[C@@H]2[C@H](COC[C@H](O)CN2Cc2cccc(F)c2)O1)NCc1cccc(F)c1`, the active concentration was > 10 µM (inactive). Regarding `COc1ccccc1CN1[C@@H](CO)[C@@H]2c3ccccc3N(C(=O)c3cccnc3)C[C@@H]21`, the active concentration was > 10 µM (inactive).

As for `COc1ccccc1CN1CC[C@@H]2[C@H](CO)Nc3ccc(C#Cc4ccccc4)cc3[C@@H]21`, the active concentration is > 10 µM (inactive).

On to `CN1C(=O)c2cc(NC(=O)Cc3cccs3)ccc2OC[C@H]2O[C@H](CC(=O)N[C@@H]3CCN(Cc4ccccc4)C3)CC[C@@H]21`, for which the active concentration is > 10 µM (inactive). For the molecule `CCC(=O)N1[C@@H](CO)[C@@H](c2ccccc2)C12CN(C(=O)c1ccc3c(c1)OCO3)C2`, the active concentration was > 10 µM (inactive). Regarding `CN1c2ccc(-c3cccc(F)c3)cc2[C@@H]2[C@@H](CCN2C(=O)c2ccccc2F)[C@H]1CO`, the active concentration was > 10 µM (inactive). `O=C(C[C@H]1CC[C@H]2[C@@H](COC[C@@H](O)CN2C(=O)Nc2ccc(C(F)(F)F)cc2)O1)NCC1CC1`: the active concentration is > 10 µM (inactive).

As to `O=C(C[C@H]1CC[C@H]2[C@@H](COC[C@H](O)CN2C(=O)C2CC2)O1)NCc1ccncc1`, the active concentration is > 10 µM (inactive). With `OC[C@@H]1[C@@H](c2ccccc2)C2(CN(Cc3nccs3)C2)N1CCC(F)(F)F`, the active concentration is > 10 µM (inactive). As for `CC(C)(O)C#Cc1ccc([C@@H]2[C@H](CO)N3CCCCN(S(C)(=O)=O)C[C@@H]23)cc1`, the active concentration is > 10 µM (inactive). `CC=Cc1ccc2n(c1=O)C[C@@H]1[C@@H](CO)[C@H](C(=O)N3CCc4ccccc4C3)N(C(=O)C3CC3)[C@H]21` (mixture of isomers): the active concentration is > 10 µM (inactive). As to `COc1cccc(CN2CCCCN3[C@H](C2)[C@H](c2ccc(-c4cccnc4)cc2)[C@@H]3CO)c1`, the active concentration is > 10 µM (inactive). The result for `N#C[C@H]1[C@H](c2ccccc2-c2ccccc2F)[C@H](CO)N1C(=O)C1CCC1` reads > 10 µM (inactive); that for `O=C(C1CCCCC1)N1CC(=O)N2[C@@H](CO)[C@@H](c3ccc(-c4ccccc4F)cc3)[C@@H]2C1`, > 10 µM (inactive).

In the case of `CCS(=O)(=O)Nc1ccc2c(c1)C(=O)N(C)[C@H]1CC[C@H](CC(=O)N[C@@H]3CCN(Cc4ccccc4)C3)O[C@H]1CO2`, the active concentration is > 10 µM (inactive). `O=C(C[C@@H]1CC[C@@H]2[C@H](COC[C@@H](O)CN2Cc2ccccc2)O1)NCCc1ccccc1`: the active concentration was > 10 µM (inactive). Next, `CCC(=O)N1C[C@H]2[C@@H](c3ccccc31)[C@H](CO)N2C(=O)CC`: > 10 µM (inactive); `CN(C)CC(=O)N1CCCCN2[C@H](CO)[C@H](c3ccc(/C=C/c4ccccc4)cc3)[C@H]2C1`: below 10 µM. As for `O=C(C[C@@H]1CC[C@@H]2[C@H](COC[C@@H](O)CN2C(=O)Cc2ccccc2)O1)NC1CCCC1`, the active concentration was > 10 µM (inactive). For `O=C(C[C@H]1CC[C@H]2[C@@H](COC[C@H](O)CN2CCC(F)(F)F)O1)NCC1CC1`, the active concentration is > 10 µM (inactive). As to `COCC(=O)N1[C@H](C(=O)Nc2ccccc2)[C@@H](CO)[C@@H]2Cn3c(ccc(-c4cccnc4)c3=O)[C@@H]21`, the active concentration is > 10 µM (inactive). Next, `CCC(=O)N1CC2(C1)[C@@H](c1ccc(-c3ccc(F)cc3)cc1)[C@H](CO)N2C(=O)CC`: > 10 µM (inactive); `COc1ccccc1CNC(=O)C[C@H]1CC[C@@H]2[C@H](COC[C@@H](O)CN2C(=O)Nc2ccccc2)O1`: > 10 µM (inactive). The result for `O=C(CN1CCOCC1)N1CC(=O)N2[C@H](C1)[C@@H](c1ccc(-c3cccc(F)c3)cc1)[C@@H]2CO` reads > 10 µM (inactive); that for `CC1C=NC(S(=O)(=O)N2CC[C@H]3[C@@H](CO)N(C)c4ccc(-c5ccccc5F)cc4[C@H]32)=N1` (some centres undefined), > 10 µM (inactive); that for `COCC(=O)N1CC2(CCN(Cc3cccnc3)CC2)c2c(n(C)c3cc(OC)ccc23)[C@@H]1CO`, > 10 µM (inactive). Turning to `CCS(=O)(=O)N1CC2(CN(CC3CCOCC3)[C@@H](CO)c3c2c2ccc(OC)cc2n3C)C1`, the active concentration was > 10 µM (inactive). As to `CC=Cc1ccc2n(c1=O)C[C@H]1[C@H](CO)[C@@H](C(=O)Nc3ccccc3)N(CC3CCCC3)[C@@H]21` (mixture of isomers), the active concentration was > 10 µM (inactive). As for `CN(C)CC(=O)N1[C@@H](CO)[C@@H](c2ccccc2)C12CN(Cc1cc(F)ccc1F)C2`, the active concentration is > 10 µM (inactive). In the case of `O=C(Cc1ccccn1)N1[C@H](CO)[C@H]2c3ccccc3NC[C@H]21`, the active concentration was > 10 µM (inactive).

As to `CCC(=O)N1[C@H](CO)[C@@H](c2ccc(/C=C/c3ccccc3)cc2)C12CN(S(C)(=O)=O)C2`, the active concentration was > 10 µM (inactive). Consider `CN1CCCCN2[C@H](CO)[C@@H](c3ccc(-c4ccc(F)cc4)cc3)[C@@H]2C1`, for which the active concentration is > 10 µM (inactive).

For the molecule `COc1ccc2c3c([nH]c2c1)[C@H](CO)N(C(=O)Nc1ccc(F)cc1)CC31CCN(CC2CCOCC2)CC1`, the active concentration is > 10 µM (inactive).

`O=C(CN1CCOCC1)N1CC2(C1)[C@@H](c1ccccc1)[C@@H](CO)N2Cc1ccc(F)cc1`: the active concentration was > 10 µM (inactive). Next, `CN(C)C(=O)c1ccc(-c2ccc3c(c2)[C@@H]2[C@@H](CCN2Cc2ccc4c(c2)OCO4)[C@@H](CO)N3)cc1`: > 10 µM (inactive); `COc1ccccc1-c1ccccc1[C@H]1[C@@H](CO)N(C(=O)C2CCOCC2)[C@H]1C#N`: > 10 µM (inactive); `O=C(NCc1ccccn1)[C@@H]1[C@@H](CO)[C@@H]2Cn3c(ccc(C4=CCCC4)c3=O)[C@H]1N2Cc1cccnc1`: > 10 µM (inactive). With `CN1c2ccc(-c3ccccc3F)cc2[C@@H]2[C@@H](CCN2C(=O)Cc2ccccn2)[C@@H]1CO`, the active concentration was > 10 µM (inactive). With `O=S(=O)(c1ccccc1)N1CCCCN2[C@H](CO)[C@@H](c3ccc(C#CC4CCCC4)cc3)[C@H]2C1`, the active concentration was > 10 µM (inactive). Take `N#C[C@H]1[C@H](c2ccccc2C2=CCCCC2)[C@@H](CO)N1C(=O)C1CCOCC1`: the active concentration was > 10 µM (inactive). As to `O=C(c1ccccn1)N1CC(=O)N2[C@H](CO)[C@H](c3ccc(C4=CCCC4)cc3)[C@@H]2C1`, the active concentration is > 10 µM (inactive). Consider `COc1cccc(S(=O)(=O)N2CCCCN3[C@@H](CO)[C@@H](c4ccc(C#CCC(C)C)cc4)[C@@H]3C2)c1`, for which the active concentration is > 10 µM (inactive). The result for `COc1ccc2c3c(n(C)c2c1)[C@H](CO)N(S(=O)(=O)c1ccc(C)cc1)CC31CCN(C)CC1` reads > 10 µM (inactive); that for `Cc1ccccc1-c1ccc([C@H]2[C@H](CO)N3C(=O)CN(C(=O)Nc4cccc(F)c4)C[C@@H]23)cc1`, > 10 µM (inactive). `O=C(C[C@@H]1CC[C@@H]2[C@H](COC[C@H](O)CN2Cc2cc(F)cc(F)c2)O1)NC1CCC1`: the active concentration is > 10 µM (inactive).

Take `OC[C@@H]1[C@@H]2c3ccccc3NC[C@@H]2N1Cc1cccnc1`: the active concentration is > 10 µM (inactive).

For the molecule `CC(C)(O)C#Cc1ccc([C@H]2[C@@H](CO)N3CCCCN(S(C)(=O)=O)C[C@@H]23)cc1`, the active concentration is > 10 µM (inactive). For the molecule `CC(C)CC#Cc1ccc([C@@H]2[C@H](CO)N3C(=O)CN(C(=O)c4ccccn4)C[C@@H]23)cc1`, the active concentration was > 10 µM (inactive). As for `CC(C)CC#Cc1ccc([C@H]2[C@H](CO)N3C(=O)CN(C(=O)c4ccccn4)C[C@@H]23)cc1`, the active concentration was > 10 µM (inactive). With `CCN1CC(=O)N2[C@@H](CO)[C@@H](c3ccc(Br)cc3)[C@@H]2C1`, the active concentration was > 10 µM (inactive). Consider `COc1cccc(C(=O)Nc2ccc3c(c2)C(=O)N(C)[C@H]2CC[C@@H](CC(=O)NCCCN4CCOCC4)O[C@H]2CO3)c1`, for which the active concentration was > 10 µM (inactive). In the case of `CN(C)C(=O)[C@H]1[C@H](CO)[C@H]2Cn3c(ccc(-c4cncnc4)c3=O)[C@H]2N1Cc1cc(F)ccc1F`, the active concentration is > 10 µM (inactive). As to `C/C=C/c1ccc([C@@H]2[C@@H](CO)N3C(=O)CN(S(=O)(=O)c4ccccc4)C[C@@H]23)cc1`, the active concentration is > 10 µM (inactive). For `Cc1ccccc1S(=O)(=O)N1CCCCN2[C@H](C1)[C@H](c1ccc(C#CCN(C)C)cc1)[C@@H]2CO`, the active concentration was > 10 µM (inactive). With `COc1ccc2c3c(n(C)c2c1)[C@@H](CO)N(C(=O)C1CC1)CC31CN(Cc2ccccc2OC)C1`, the active concentration was > 10 µM (inactive).

For `COc1ccc(C#Cc2ccc([C@H]3[C@H]4CN(C(=O)c5ccc(F)cc5)CC(=O)N4[C@H]3CO)cc2)cc1`, the active concentration was > 10 µM (inactive). With `O=C(C[C@H]1CC[C@H]2[C@@H](COC[C@H](O)CN2Cc2cccc(F)c2)O1)NCc1cccc(F)c1`, the active concentration is > 10 µM (inactive).

As to `COc1cccc(-c2ccc3c(c2)[C@H]2[C@H](CCN2S(=O)(=O)c2ccccc2C)[C@H](CO)N3)c1`, the active concentration is > 10 µM (inactive). As to `COc1ccccc1CN1[C@@H]2c3ccc(C4=CCCC4)c(=O)n3C[C@H]1[C@H](CO)[C@H]2C(=O)N(C)C`, the active concentration was > 10 µM (inactive).
